Results reported in publication PMC6112376, “Comprehensive Analyses and Prioritization of Tox21 10K Chemicals Affecting Mitochondrial Function by in-Depth Mechanistic Studies” (Environmental Health Perspectives, 2018).
Like-named read-outs stand apart in the source and are kept apart here.

Columns and labels:
hNSC = assay: MMP assay in human neural stem cells (hNSC); assay type: cell-based; details: Homo sapiens, Neural stem cell, 1 h, read-out: hNSC IC50 (MMP)
HepG2 cells [1] = assay: ROS-Glo hydrogen peroxide (ROS) assay; assay type: cell-based, human; details: Homo sapiens, HepG2, 2 h, read-out: ROS (HepG2) EC50
HepG2 cells [2] = assay: Intracellular ATP content (cell viability) assay; assay type: cell-based, human; details: Homo sapiens, HepG2, 40 h
[3] = tested on: p53 (p53-bla HCT-116 cells); assay: p53 β-lactamase reporter gene assay; assay type: cell-based, human; details: 16 h incubation; mean±SD of three experiments
[4] = tested on: Nrf2/ARE (ARE-bla HepG2 cells); assay: ARE β-lactamase reporter gene assay; assay type: cell-based, human; details: Homo sapiens, HepG2, 16 h, read-out: ARE (HepG2) EC50
[5] = tested on: isolated rat liver mitochondria; assay: Oxygen consumption, Clark-type oxygen electrode; assay type: biochemical
[6] = tested on: HeLa cells expressing YFP-Parkin; assay: Parkin translocation assay; assay type: cell-based, human
rat primary hepatocytes [7] = tested on: rat primary hepatocytes
HepG2 cells [8] = details: cited from earlier work
[9] = tested on: Caenorhabditis elegans strain PE255; details: PE255 [sur-5::luc+::gfp; rol-6(su1006)], Caenorhabditis elegans, in vivo
HepG2 cells [10] = assay: cells; details: Homo sapiens
[11] = tested on: Caenorhabditis elegans strain PE255; assay: In vivo C. elegans ATP status assay; details: Caenorhabditis elegans, read-out: LEC LUM: lowest effect concentration for luminescence, a measure of nematode ATP content
rat primary hepatocytes [12] = assay: MMP assay in rat primary hepatocytes; details: Rattus norvegicus, Hepatocyte
[13] = tested on: Caenorhabditis elegans (Bristol N2); assay: C. elegans larval development and growth assay; details: Caenorhabditis elegans, read-out: LEC EXT: lowest effect concentration for extinction, a measure of nematode size

In the case of O=C1c2c(O)ccc([N+](=O)[O-])c2C(=O)c2c([N+](=O)[O-])ccc(O)c21 [1,8-Dihydroxy-4,5-dinitroanthraquinone], the IC50 (hNSC) is reported as 3000 nM, the EC50 (HepG2 cells [1]) is reported as 34300 nM and the IC50 (HepG2 cells [2]; read-out: ATP (HepG2, galactose) IC50) is reported as 17000 nM. For the same compound, the IC50 (HepG2 cells [2]; read-out: ATP (HepG2, glucose) IC50) was 27000 nM, the “p53 (HCT-116) EC50” value [3] was “Inactive” and the EC50 [4] was 2430 ± 1380 nM. The “Potential Mechanism” value [5] was “Uncoupler at low concentrations (0.8 - 4µM), and uncoupler + inhibitor at high concentrations (20-100 µM)”, the “I-ADP, % of control (O2 consumption rate)” value ([5]; 0.16 µM) was 106 (52.0) % of control and the “I-sub, % of control (O2 consumption rate)” value ([5]; 0.16 µM) was 104 (16.8) % of control. For the same compound, the “II-ADP, % of control (O2 consumption rate)” value (“II-ADP, % of control” below) ([5]; 0.16 µM) was 98 (75.7) % of control, the “II-sub, % of control (O2 consumption rate)” value (from here on “II-sub, % of control”) ([5]; 0.16 µM) was 98 (29.9) % of control and the “I-ADP, % of control (O2 consumption rate)” value ([5]; 0.8 µM) was 102 (50.0) % of control. The “I-sub, % of control (O2 consumption rate)” value ([5]; 0.8 µM) was 139 (22.3) % of control, the “II-ADP, % of control” value ([5]; 0.8 µM) was 102 (78.8) % of control and the “II-sub, % of control” value ([5]; 0.8 µM) was 132 (40.5) % of control. The “I-ADP, % of control (O2 consumption rate)” value ([5]; 4 µM) was 119 (58.8) % of control, the “I-sub, % of control (O2 consumption rate)” value ([5]; 4 µM) was 327 (52.6) % of control and the “II-ADP, % of control” value ([5]; 4 µM) was 104 (80.3) % of control. The “II-sub, % of control” value ([5]; 4 µM) was 206 (63.1) % of control, the “I-ADP, % of control (O2 consumption rate)” value ([5]; 20 µM) was 95 (47.0) % of control and the “I-sub, % of control (O2 consumption rate)” value ([5]; 20 µM) was 311 (50.0) % of control. The “II-ADP, % of control” value ([5]; 20 µM) was 40 (30.9) % of control, the “II-sub, % of control” value ([5]; 20 µM) was 108 (33.0) % of control and the “I-ADP, % of control (O2 consumption rate)” value ([5]; 100 µM) was 35 (10.0) % of control. The “I-sub, % of control (O2 consumption rate)” value ([5]; 100 µM) was 84 (10.0) % of control, the “II-ADP, % of control” value ([5]; 100 µM) was 49 (17.8) % of control and the “II-sub, % of control” value ([5]; 100 µM) was 141 (20.8) % of control. For the same compound, the Parkin recruitment [6] was “Inactive”, the “MMP assays efficacy (%) Rat Hepatocytes” value (rat primary hepatocytes [7]) was -79±33% and the “Rat hepatocytes (efficacy) (MMP)” value (rat primary hepatocytes [7]) was 16.09±6.94 ( −119±28.1 ) %. The “MMP assays efficacy (%) qHTS-HepG2” value (HepG2 cells [8]) was -86±5%, the IC50 (HepG2 cells [8]; read-out: MMP assays IC50 (µM) qHTS-HepG2) was 0.07 ± 0.04 µM and the “LEC (lowest effect concentration), ATP assay” value [9] was no more than 10 µM. It also gave an IC50 (HepG2 cells [10]; HepG2, 1 h, read-out: HepG2 IC50 Galactose (MMP)) of 2.81 µM, an IC50 (HepG2 cells [10]; HepG2, 1 h, read-out: HepG2 IC50 Glucose (MMP)) of 1.79 µM and an IC50 (HepG2 cells [10]; HepG2, read-out: MMP assays IC50 (µM) HepG2) of 0.45 µM. For the same compound, the Emax (HepG2 cells [10]; HepG2, read-out: MMP assays efficacy (%) HepG2) was 86%, the minimal effective concentration [11] was 10 µM and the IC50 (rat primary hepatocytes [12]; 1 h, read-out: Rat hepatocytes IC50 (MMP)) was 16.1 µM. It also gave an IC50 (rat primary hepatocytes [12]; read-out: MMP assays IC50 (µM) Rat Hepatocytes) of 5.69 ± 2.62 µM and a minimal effective concentration [13] of 75 µM.
